Test results reported in US9873659B2, “Solutions of trialkali metal salts of MGDA with an excess of L-enantiomer, their manufacture and use” (BASF SE, priority 2014, dated 2018).

Key:
[1] = Solubility experiments: concentrated aqueous solutions stored and checked for crystallization or precipitation; type: physicochemical; details: for sign of crystallization or precipitation on storage: aqueous solution, 90 days at 20° C.; for solids content of the concentrated aqueous solution that stayed free of crystallization or precipitation: concentrated by evaporation of water at 70° C., cooled to ambient temperature, stable 90 days at 20° C.
Method: In each case, the solubility refers to MGDA without hydrate water.
It was allowed to cool down to ambient temperature.
The aqueous solution of MGDA-K2.35Na0.65 obtained according to I.4 was concentrated by evaporation of a part of the water at 70° C. until the solids content was 65% by weight. It was allowed to cool down to ambient temperature.

[2] = room temperature; colder solutions may lead to precipitation; cited from earlier work

Row | solids content of the concentrated aqueous solution that stayed free of crystallization or precipitation [1] | Compound | sign of crystallization or precipitation on storage ([1]; solids content 64.5% by weight) | sign of crystallization or precipitation on storage ([1]; solids content 61.1% by weight) | concentration of aqueous solution that can be made and stored [2] | sign of crystallization or precipitation on storage ([1]; solids content 65% by weight)
1 | 64.5 % by weight | MGDA-K2.35Na0.65 [MGDA-K2.35Na0.65 obtained according to I.2] | did not show any sign of crystallization or precipitation | – | – | –
2 | 61.1 % by weight | MGDA-K2.35Na0.65 [MGDA-K2.35Na0.65 obtained according to I.3] | – | did not show any sign of crystallization or precipitation | – | –
3 | – | CC(C(=O)[O-])N(CC(=O)[O-])CC(=O)[O-].[Na+].[Na+].[Na+] (racemic) [racemic MGDA trisodium salt] | – | – | about 40 % by weight | –
4 | 65 % by weight | MGDA-K2.35Na0.65 [MGDA-K2.35Na0.65 obtained according to I.4] | – | – | – | did not show any sign of crystallization or precipitation
